Common to all, as to assay type: cell-based
Assay [1] deals with Candida albicans. Kind of assay: MIC by impregnated disk method, Candida albicans. Particulars: Candida albicans. How it is done:
(§1) Stock solutions of the antifungal agents to be tested are preferably prepared by diluting the antifungal agents in the proper nutrient medium. It is presently preferred to prepare dilutions in 10 ml of the proper medium to give the following final concentrations when applied to the disks (all quantities in micrograms per milliliter): 0.05, 0.08, 0.09, 0.1; 0.1 increment increases to 0.9, 1.0; 0.5 increment increases to 10.0; and 12.0, 14.0, 20.0, 25.0 and 50.0. Disks have been prepared by placing 0.05 ml of the above dilutions of antifungal agent containing medium on 6.5 mm diameter disks in 0.01 or 0.02 ml increments. The impregnated disks are then allowed to dry at a temperature preferably below about 10° C. […] The disks may also be dried by a lyophilization or freeze drying process.
(§2) To perform the tests in accordance with the present inventions, disks impregnated with various concentrations of antifungal agent and nutrient medium and a control disk impregnated only with the corresponding nutrient medium are placed on the fungus to be tested which has been applied to the non-nutrient medium. The disks are the inoculated non-nutrient medium are then incubated at a suitable temperature for a sufficient time to promote growth of the fungus. Any temperature is suitable if it will promote growth of the fungus without adversely affecting the fungus or the activity of the antifungal agent or agents tested. The time of incubation can be determined by observing the extent of growth around the control disk. […] The zones of growth or inhibition around the disks were read at 6, 12, 24, 36 and 48 hours after the disks were placed on the tested fungus.
(§3) The minimum inhibitory concentration is defined as the lowest concentration of antifungal agent which inhibits visible growth. The disks containing concentrations of antifungal agents below the minimum inhibitory concentration show circumscribed growth of the fungus around the disk. Disks containing concentrations of antifungal agent at or above the minimum inhibitory concentration show no circumscribed growth.
(§4) Clinical isolates of various fungi listed in Table 1 were obtained from different patients diagnosed as having fungal infections. The fungal inocula were prepared by using a 24-48 hour cultures grown in yeast nitrogen base containing 1% glucose and 0.15% asparagine. After centrifuging, the supernatant was removed, the sedimented cells were washed twice with sterile distilled water and a cell suspension was adjusted to 80% transmission at 520 nm using a Beckman DB-GT grating spectrophotometer.
(§5) Sterile liquified 2% purified agar was placed in petri dishes and allowed to harden. The surface of the agar was inoculated with a sterile cotton swab saturated with a suspension of an organism. The uniformly swabbed plates were then allowed to dry.
(§6) Disks were prepared using the dilutions described above for amphotericin B, nystatin and 5-fluorocytosine. 0.05 ml of the dilutions of each antifungal agent diluted with the appropriate nutrient medium were pipetted on 6.5 mm diameter disks. The disks were dried at 4° C. after each application. Control disks were also prepared.
(§7) Several test disks and a control disk were placed in each petri dish containing the inoculated agar. The disks and petri dishes were then incubated at 29° C. and the minimum inhibitory concentration of the various concentrations of the antifungal agents were read at 6, 12, 24, 36 and 48 hours.
(§8) In 10 duplicate runs with each strain tested, the variation in minimum inhibitory concentration averaged ±0.05 μg/ml.

A further assay concerns C. parapsilosis. Kind of assay: MIC by impregnated disk method, Candida parapsilosis. The note with it: Lodderomyces parapsilosis. How it is done:
as §1, §2, §3, §4, §5, §6, §7, §8

In a further assay the test system is C. tropicalis. Nature of the assay: MIC by broth dilution method, Candida tropicalis. The note with it: Candida tropicalis, read-out: Minimum Inhibitory Concentration, Broth.
Excerpt: The preparation of the nutrient media, the antifungal agents and the fungi to be tested in the present invention are similar to those reported in S. Shadomy and A. Espinel-Ingroff, "Susceptibility Testing Of Antifungal Agents", Ch. 63, pp. 569-574 in E. H. Lennett, E. H. Spaulding, and J. P. Truant, Eds., Manual Of Clinical Microbiology, 2nd Ed., American Society for Microbiology, Washington, D.C. (1974). This publication describes the susceptibility testing of antifungal agents, namely, amphotericin B, nystatin and 5-fluoro-cytosine (5-FC), by the "broth dilution method" and the "semisolid agar dilution method". At pages 570-571, it is stated:
as §8
*Broth dilution method conducted in accordance with S. Shadomy and E.
Espinel-Ingroff, "Susceptibility Testing of Antifungal Agents", Ch. 63,
pp. 569-574 in E. H. Spaulding and J. P. Truant, Eds., Manual Of Clinical
Microbiology, 2nd Ed., American Society for Microbiology, Washington, […]

Another assay relates to Saccharomyces cerevisiae. Kind of assay: MIC by impregnated disk method, Saccharomyces cerevisiae. The note with it: Saccharomyces cerevisiae. How it is done:
as §1, §2, §3, §4, §5, §6, §7, §8

For assay [2], the system named is Candida albicans. Kind of assay: Minimum fungicidal concentration by disk method. Particulars: 48 h. How it is done:
Minimum fungicidal concentration is defined as the lowest concentration of antifungal agent from which subcultures were negative or where no overgrowth occurs. In tests of Candida albicans, the minimum inhibitory concentration can usually be determined at about 24 hours. Minimum fungicidal concentration may be determined by incubation for an additional 24 hours. At concentrations below the minimum fungicidal concentration, overgrowth occurs by 48 hours.
The minimal fungicidal concentrations of amphotericin B for the first 6 isolates of Candida albicans listed in Table 1 were determined by incubating the disks and organisms for 48 hours. At concentrations below the minimum fungicidal concentration, overgrowth occurred by 48 hours.

Assay [3] deals with Candida albicans. Kind of assay: Susceptibility to combination of antifungal agents on disks (Example 2). The note with it: Candida albicans isolate. An excerpt: (§9) The method of the present invention also may be used to test combinations of antifungal agents. In this method, more than one antifungal agent of known concentration is impregnated in each test disk.
(§10) Each disk is impregnated with a particular known concentration of at least one particular antifungal agent, except for the control disks. When the susceptibility of a fungus to combinations of antifungal agents is being tested, more than one antifungal agent is impregnated in each test disk.
(§11) The susceptibility of two other isolates to combinations of antifungal agents were tested by combining more than one antifungal agent on each test disk. A series of test disks were prepared containing various combinations of antifungal agents in various concentrations and were used in the method of the present invention. The results of this procedure are summarized in the following specific, non-limiting examples:
This is a significant reduction in amphotericin B.

The subject of the next assay is Candida tropicalis. Nature of the assay: Susceptibility to combination of antifungal agents on disks (Example 3).
Excerpt: as §9, §10, §11
An isolate of Candida tropicalis was initially tested for amphotericin B susceptibility of 0.5 μg/ml. When a combination of amphotericin B and tetracycline were combined on the disks used in the testing procedure according to the present invention, effective inhibition of the isolate occurred using 0.05 μg/ml of amphotericin B and 0.2 μg/ml of tetracycline.

Values after ≈ are worked out from the molar mass of the structure shown. Where two headings read alike, the source gives them in different places.

For the molecule `C[C@@H]1[C@H](O)[C@@H](C)/C=C/C=C/C=C/C=C/C=C/C=C/C=C/[C@H](O[C@@H]2O[C@H](C)[C@@H](O)[C@H](N)[C@@H]2O)C[C@@H]2O[C@](O)(C[C@@H](O)C[C@@H](O)[C@H](O)CC[C@@H](O)C[C@@H](O)CC(=O)O[C@H]1C)C[C@H](O)[C@H]2C(=O)O` [Amphotericin B, amphotericin B], the MIC amounted to 0.3 µg/mL (≈ 0.325 µM) in the assay with Candida albicans [1] (isolate 1, read-out: Minimum Inhibitory Concentration, Disk); 0.6 µg/mL (≈ 0.649 µM) in the assay on Candida albicans [1] (isolate 2, read-out: Minimum Inhibitory Concentration, Disk); 0.08 µg/mL (≈ 0.0866 µM) in the assay on Candida albicans [1] (isolate 3, read-out: Minimum Inhibitory Concentration, Disk); 0.6 µg/mL (≈ 0.649 µM) in the assay on Candida albicans [1] (isolate 4, read-out: Minimum Inhibitory Concentration, Disk); 0.9 µg/mL (≈ 0.974 µM) in the assay with Candida albicans [1] (isolate 5, read-out: Minimum Inhibitory Concentration, Disk); 1 µg/mL (≈ 1.08 µM) in the assay on Candida albicans [1] (isolate 6, read-out: Minimum Inhibitory Concentration, Disk). Further, the MIC with C. parapsilosis (read-out: Minimum Inhibitory Concentration, Disk, C. parapsilosis isolate 1) stood at 0.5 µg/mL (≈ 0.541 µM); with C. parapsilosis (read-out: Minimum Inhibitory Concentration, Disk, C. parapsilosis isolate 2), 0.6 µg/mL (≈ 0.649 µM); with C. tropicalis it was 0.8 µg/mL (≈ 0.866 µM); with Saccharomyces cerevisiae (read-out: Minimum Inhibitory Concentration, Disk, S. cerevisiae isolate 2), 0.6 µg/mL (≈ 0.649 µM); in the assay on Saccharomyces cerevisiae (read-out: Minimum Inhibitory Concentration, Disk, Saccharomyces cerevisiae isolate 1) it was 0.4 µg/mL (≈ 0.433 µM); in the assay with Candida tropicalis (Candida tropicalis isolate, alone, initially tested, read-out: amphotericin B susceptibility), 0.5 µg/mL. Further, the MFC with Candida albicans [2] (isolate 3, read-out: Minimum Fungicidal Concentration, Disk) worked out at 0.9 µg/mL (≈ 0.974 µM); with Candida albicans [2] (isolate 4, read-out: Minimum Fungicidal Concentration, Disk), 0.9 µg/mL (≈ 0.974 µM); with Candida albicans [2] (isolate 6, read-out: Minimum Fungicidal Concentration, Disk), 5 µg/mL (≈ 5.41 µM); in the assay on Candida albicans [2] (read-out: Minimum Fungicidal Concentration, Disk, isolate 1), 1.4 µg/mL (≈ 1.52 µM); with Candida albicans [2] (read-out: Minimum Fungicidal Concentration, Disk, isolate 2), 1.6 µg/mL (≈ 1.73 µM); with Candida albicans [2] (read-out: Minimum Fungicidal Concentration, Disk, isolate 5), 1.8 µg/mL (≈ 1.95 µM). Moreover, the “amphotericin B susceptibility” value came out at 0.8 µg/mL in the assay on Candida albicans [3] (alone, previously tested) and 0.2 µg/mL in the assay with Candida albicans [3] (in combination with tetracycline). Moreover, the “effective inhibition of the isolate, concentration of amphotericin B” value with Candida tropicalis (in combination with tetracycline 0.2 μg/ml) was found to be 0.05 µg/mL.
